Assay results from patent publication US20030228583A1, “Biomarkers of liver response” (priority 2001, published 2003).

Tested on: Liver Response-Associated Features (LRFs) in liver tissue
Test: Proteome analysis (2D electrophoresis, Reference Protocol) of liver tissue of drug-treated vs control animals: relative abundance of LRFs
From the text: Samples from animals treated with various drugs at various timepoints and various dose levels can be collected, prepared, and analysed as described herein. […] Using the following procedure, proteins in liver tissue and serum/plasma from 5 control animals and 5 animals having liver response induced through drug treatment were separated by isoelectric focusing followed by SDS-PAGE and analyzed. Samples were taken and analyzed at three different time points designated “early”, “full manifestation” and “late”. Parts 6.1.1 to 6.1.9 (inclusive) of the procedure set forth below are hereby designated as the “Reference Protocol”.
At the time of necropsy, approximately 2 g section of the liver's median lobe was removed to a conical tube and quick-frozen in liquid nitrogen. The frozen liver section was then pulverized for 1 minute using a freezer mill as follows:
Approximately 10-20 mg pulverized liver was solubilized with 10 ul protease inhibitor and 1.5 ml lysis solution and vortexed well. The sample was allowed to remain at room temperature for 10 minutes, was vortexed again, and then pelleted using an Eppendorf 5417R Centrifuge for 10 minutes at 13000g at 15 EC. The resulting supernatant was frozen at −80° C.
The sample was heated at 95° C. for 5 mins, and then allowed to cool to 20° C. 125 μl of the following buffer was then added to the sample:
This mixture was vortexed, and centrifuged at 13000 rpm for 5 mins at 15° C., and the supernatant was analysed by isoelectric focusing. An assay for protein content was carried out on the final sample (Pierce BCA Cat #23225).
Isoelectric focusing (IEF), was performed using the Immobiline® DryStrip Kit (Pharmacia BioTech), following the procedure described in the manufacturer's instructions, see Instructions for Immobilineg DryStrip Kit, Pharmacia, #18-1038-63, Edition AB (incorporated herein by reference in its entirety). Immobilized pH Gradient (IPG) strips (18 cm, pH 3-10 non-linear strips; Pharmacia Cat. #17-1235-01) were rehydrated overnight at 20° C. in a solution of 8M urea, 2% (w/v) CHAPS, 10 mM DTT, 2% (v/v) Resolytes 3.5-10, as described in the Immobiline DryStrip Users Manual. For IEF, 50 μl of supernatant (prepared as above) was loaded onto a strip, with the cup-loading units being placed at the basic end of the strip. The loaded gels were then covered with mineral oil (Pharmacia 17-3335-01) and a voltage was immediately applied to the strips according to the following profile, using a Pharmacia EPS3500XL power supply (Cat 19-3500-01):
After the final 19 hr step, the strips were immediately removed and immersed for 10 mins at 20° C. in a first solution of the following composition: 6M urea; 2% (w/v) DTT; 2% (w/v) SDS; 30% (v/v) glycerol (Fluka 49767); 0.05M Tris/HCl, pH 6.8 (Sigma Cat T-1503). The strips were removed from the first solution and immersed for 10 mins at 20° C. in a second solution of the following composition: 6M urea; 2% (w/v) iodoacetamide (Sigma 1-6125); 2% (w/v) SDS; 30% (v/v) glycerol; 0.05M Tris/HCl, pH 6.8.
A 9-16% linear polyacrylamide gradient was cast, extending up to a point 2 cm below the level of the notch in the front plate, using the Angelique gradient casting system (Large Scale Biology). Stock solutions were as follows. Acrylamide (40% in water) was from Serva (Cat. #10677). […] The gel buffer was 0.375M Tris/HCl, pH 8.8. The polymerization catalyst was 0.05% (v/v) TEMED (BioRad 161-0801), and the initiator was 0.1% (w/v) APS (BioRad 161-0700). No SDS was included in the gel and no stacking gel was used. The cast gels were allowed to polymerize at 20° C. overnight, and then stored at 4° C. in sealed polyethylene bags with 6 ml of gel buffer, and were used within 4 weeks.
A solution of 0.5% (w/v) agarose (Fluka Cat 05075) was prepared in running buffer (0.025 M Tris, 0.198 M glycine (Fluka 50050), 1% (w/v) SDS, supplemented by a trace of bromophenol blue). The agarose suspension was heated to 70° C. with stirring, until the agarose had dissolved.

SMILES: CCC1(c2ccccc2)C(=O)NC(=O)NC1=O [phenobarbital]
- Fold Change LRF-24 (Early, P 0.0075): 3.34 fold
- Fold Change LRF-17 (Early, P 0.0212): 1.61 fold
- Fold Change LRF-26 (Early, P 0.0216): 1.33 fold
- Fold Change LRF-37 (Early, P 0.0254): 3.98 fold
- Fold Change LRF-112 (Late, P 0.0075): 5.38 fold
- Fold Change LRF-115 (Late, P 0.0075): 3.16 fold
- Fold Change LRF-85 (Middle, P 0.0122): 1.72 fold
- Fold Change LRF-60 (Middle, P 0.0216): 1.67 fold
- Fold Change LRF-80 (Middle, P 0.0216): 1.40 fold
- Fold Change LRF-90 (Middle, P 0.0216): 1.47 fold
- Fold Change LRF-66 (Middle, P 0.0345): 1.93 fold
- Fold Change LRF-74 (Middle, P 0.0361): 1.42 fold
- Fold Change LRF-83 (Middle, P 0.0367): 1.40 fold
